This note sets out measurements from patent US20240417395A1, “DUAL ANTAGONIST AND USE THEREOF” (NICOYA THERAPEUTICS (SHANGHAI) CO., LTD, priority 2021, published 2024).

≈ marks a conversion by molar mass, not a printed value. Where two headings read alike, the source gives them in different places. Some results are limits rather than exact numbers.

One data set addresses AT1 (Homo sapiens (Human), UniProt P30556). The experiment in a line: Calcium flux assay on AT1 cell line. Particulars: AT1/HEK293, calcium flux, angiotensin II agonist. The class given is cell-based. On the procedure: Test materials: a) cell line: AT1/HEK293; b) vehicles: F12, Invitrogen (Cat #11765-047); FBS, Corning (Cat #35-076-CV); Geneticin, Invitrogen (Cat #10131); c) reagent: Fluo-4 Direct, (Invitrogen, Cat #F10471); d) instruments: 384 well Poly-D-Lysine protein coating plate, Greiner #781946; Vi-cell XR Cell Viability Analyzer, Beckman Coulter; Incubator, Thermo.
For the agonist (angiotensin II) master plate, the agonist solution was diluted from 1 mM to 200 μM with the test buffer solution. […] Afterwards, 900 nL of each compound solution was transferred to the master plate and 30 μL of the test buffer solution was added. • a) The cell plate was removed from the incubator, and 20 μL of 2X Fluo-4 Direct was added by a pipette to a 384-well cell plate. • b) The cell plate was incubated at 37° C. for 50 min in the environment of 5% CO2, and then incubated at room temperature for 10 min. • c) The cell plate was removed from the incubator and placed in FLIPR. The compound plates and the tip box were placed in FLIPR. • d) Regarding the EC80 plate: • 1) Operations were conducted on […]. • 2) 10 μL of compound solution was transferred from the EC80 master plate to the cell plate. • 3) Fluorescence signals were read. • 4) The read signals were counted, and the EC80 value of each cell line was calculated using FLIPR. • 5) For the concentration of the compound plate, a solution having a concentration 6 times that of the reference agonist EC80 was formulated. • e) Regarding the compound plate: • 1) Operations were conducted on […]. • 2) 10 μL of compound was transferred to the cell plate. • 3) Fluorescence signals were read. • 4) 10 μL of solution having a concentration 6 times that of the reference agonist EC80 was transferred. • 5) Fluorescence signals were read. • f) Data analysis by Prism
A general note: Calcium flux is commonly read through the fluorescence of an indicator in the cells.

The nature of data set [1]: Experiment on water solubility (HPLC-UV). It is filed as physicochemical. On the procedure:
The detection was carried out in accordance with the high performance liquid chromatography (General Principles 0512 of Chinese Pharmacopoeia Volume IV (2020)):
Chromatographic conditions for the HPLC-UV method: mobile phase: 0.02 M KH2PO4 aqueous solution-acetonitrile (90:10), gradient elution; chromatographic column: C18; detection wavelength: 210 nm. The water solubility was calculated based on the peak area by the external standard method.

For a further data set, the target named is CYP1A2 (Homo sapiens (Human), UniProt P05177). Kind of data set: Inhibition of cytochrome P450 isozyme CYP1A2. The class given is in vitro ADME. Particulars: for IC50: recombinant enzyme. On the procedure: (§1) A total of six specific probe substrates of six isozymes of CYPs, i.e., α-Naphthoflavone (CYP1A2), Sulphaphenazole (CYP2C9), Ticlopidine (CYP2C19), Quinidine (CYP2D6), Ketoconazole (CYP3A4), and Montelukast (CYP2C8) were co-incubated with recombinant hepatic drug enzymes CYP1A2, CYP2C9, CYP2C19, CYP2D6, CYP3A4, and CYP2C8 and test compounds, respectively. Nicotinamide adenine dinucleotide phosphate (NADP+), D-glucose-6-phosphate (G6P) and glucose-6-phosphate dehydrogenase (G6DHP) were added to start the reaction. At the end of the reaction, the corresponding half maximal inhibitory concentrations (IC50) were calculated by the fluorescence detection method (Ex490 nm/Em520 nm).

Another data set concerns the target CYP2C9 (Homo sapiens (Human), UniProt P11712). Kind of data set: Inhibition of cytochrome P450 isozyme CYP2C9. It is filed as in vitro ADME. Particulars: for IC50: recombinant enzyme. On the procedure: as §1
[2] abbreviates: fluorescence detection, read-out: IC50 CYP1A2.
The mark [3] stands for this setting: fluorescence detection, read-out: IC50 CYP2C9.
Setting [4] is: read-out: IC50 activity against AT1 (class).

The IC50 is the concentration needed to halve the response being measured. As usually defined, the solubility is the concentration that dissolves in the medium under given conditions.

CYP1A2, sequence (P05177 whole entry): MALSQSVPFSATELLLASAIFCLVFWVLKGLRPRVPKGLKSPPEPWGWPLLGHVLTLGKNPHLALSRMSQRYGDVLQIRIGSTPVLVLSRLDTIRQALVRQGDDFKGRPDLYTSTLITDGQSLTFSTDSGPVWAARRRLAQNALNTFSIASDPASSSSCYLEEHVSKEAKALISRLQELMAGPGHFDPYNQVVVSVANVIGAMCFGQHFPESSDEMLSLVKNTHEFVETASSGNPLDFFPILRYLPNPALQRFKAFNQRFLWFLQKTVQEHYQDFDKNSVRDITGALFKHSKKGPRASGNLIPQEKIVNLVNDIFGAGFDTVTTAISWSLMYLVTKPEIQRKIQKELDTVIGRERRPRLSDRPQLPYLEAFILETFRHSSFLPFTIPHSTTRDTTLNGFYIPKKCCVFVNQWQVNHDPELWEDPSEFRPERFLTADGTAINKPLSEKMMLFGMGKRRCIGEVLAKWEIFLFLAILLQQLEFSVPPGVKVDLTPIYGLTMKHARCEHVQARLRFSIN
CYP2C9, sequence (P11712 whole entry): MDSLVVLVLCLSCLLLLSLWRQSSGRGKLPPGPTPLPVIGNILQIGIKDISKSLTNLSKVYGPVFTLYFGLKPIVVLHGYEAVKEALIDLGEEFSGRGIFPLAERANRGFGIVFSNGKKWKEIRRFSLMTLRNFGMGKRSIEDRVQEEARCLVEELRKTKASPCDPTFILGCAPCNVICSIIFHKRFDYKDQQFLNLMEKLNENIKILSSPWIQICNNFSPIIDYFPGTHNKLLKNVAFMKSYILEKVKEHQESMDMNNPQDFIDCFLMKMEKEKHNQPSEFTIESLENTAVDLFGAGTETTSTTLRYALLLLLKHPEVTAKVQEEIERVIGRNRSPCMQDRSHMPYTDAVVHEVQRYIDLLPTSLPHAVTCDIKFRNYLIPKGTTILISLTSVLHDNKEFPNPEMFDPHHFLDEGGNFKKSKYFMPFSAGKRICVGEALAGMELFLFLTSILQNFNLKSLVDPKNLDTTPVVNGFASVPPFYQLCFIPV
AT1, sequence (P30556 whole entry): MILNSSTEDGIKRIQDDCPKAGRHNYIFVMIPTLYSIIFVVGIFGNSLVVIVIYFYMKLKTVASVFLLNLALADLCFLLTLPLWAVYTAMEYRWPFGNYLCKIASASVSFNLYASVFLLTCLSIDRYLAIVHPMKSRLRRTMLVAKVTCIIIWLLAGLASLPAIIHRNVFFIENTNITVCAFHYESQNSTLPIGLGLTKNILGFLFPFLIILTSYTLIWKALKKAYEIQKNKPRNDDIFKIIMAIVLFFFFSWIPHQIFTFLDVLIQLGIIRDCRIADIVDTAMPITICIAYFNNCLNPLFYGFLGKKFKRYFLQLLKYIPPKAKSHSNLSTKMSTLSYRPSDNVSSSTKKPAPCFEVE

On to `CCCCC1=NC2(CCCC2)C(=O)N1Cc1ccc(-c2ccccc2S(=O)(=O)Nc2noc(C)c2C)c(COCC)c1` [Sparsentan, reference compound], for which the IC50 at AT1 (read-out: IC50 against AT1) was 9.79 nM; on CYP1A2 (setting [2]), greater than 10000 nM; at CYP2C9 (setting [3]), greater than 10000 nM. The solubility in data set [1] (aqueous medium at pH 7.4 (buffer not named), pH 7.4, aqueous buffer, pH7.4, read-out: Solubility pH7.4) worked out at 210 µg/mL (≈ 354 µM); in data set [1] (pH 1.6, fassgf or other biorelevant, FaSSGF (pH1.6), read-out: Solubility FaSSGF (pH1.6)) it was 130 µg/mL (≈ 219 µM); in data set [1] (pH 5, FeSSIF (pH5.0), read-out: Solubility FeSSIF (pH5.0)) it was 20 µg/mL (≈ 33.7 µM); in data set [1] (pH 6.5, FaSSIF (pH6.5), read-out: Solubility FaSSIF (pH6.5)) it was 80 µg/mL (≈ 135 µM). For the same compound, the “risk of inhibiting CYP1A2 activity (conclusion in words)” value (“risk of inhibiting CYP1A2 activity” for short) on CYP1A2 (conclusion to Table 4) is reported as “no risk of inhibiting”. The “risk of inhibiting CYP2C9 activity (conclusion in words)” value (shortened to “risk of inhibiting CYP2C9 activity”) on CYP2C9 (conclusion to Table 4) was “no risk of inhibiting”.

Turning to `CCCCC1=N[C@@]2(CC3C[C@H]3C2)C(=O)N1Cc1ccc(-c2ccccc2S(=O)(=O)Nc2noc(C)c2Cl)c(COCC)c1` (some centres unmarked) [Example 7], the half-inhibitory concentration (IC50) at AT1 (setting [4]) is 1 to 10 nM; on AT1 (read-out: IC50 against AT1), 3.55 nM; on CYP1A2 (setting [2]), greater than 10000 nM; on CYP2C9 (setting [3]), greater than 10000 nM. Further, the “Solubility FaSSGF (pH1.6)” value in data set [1] (FaSSGF (pH1.6)) was found to be 0.24 mg/mL. The “Solubility FaSSIF (pH6.5)” value in data set [1] (FaSSIF (pH6.5)) was found to be 0.87 mg/mL. Moreover, the “Solubility FeSSIF (pH5.0)” value in data set [1] (FeSSIF (pH5.0)) came to 0.08 mg/mL. Besides, the “Solubility pH7.4” value in data set [1] (pH7.4) was determined as 0.84 mg/mL. The “risk of inhibiting CYP1A2 activity” value at CYP1A2 (conclusion to Table 4) is reported as “no risk of inhibiting”. In addition, the “risk of inhibiting CYP2C9 activity” value at CYP2C9 (conclusion to Table 4) is reported as “no risk of inhibiting”.

Regarding `CCCCC1=N[C@@]2(CC3C[C@H]3C2)C(=O)N1Cc1ccc(-c2ccccc2S(=O)(=O)Nc2noc(C)c2C)c(COCC)c1` (some centres unmarked) [Example 3], the IC50 on AT1 (setting [4]) was 1 to 10 nM; on AT1 (read-out: IC50 against AT1), 1.97 nM; on CYP1A2 it was greater than 10000 nM; on CYP2C9, greater than 10000 nM. For the same compound, in data set [1] (FaSSGF (pH1.6)), the “Solubility FaSSGF (pH1.6)” value is given as greater than 1 mg/mL. The “Solubility FaSSIF (pH6.5)” value in data set [1] (FaSSIF (pH6.5)) is recorded as 0.19 mg/mL. The “Solubility FeSSIF (pH5.0)” value in data set [1] (FeSSIF (pH5.0)) came out at 0.06 mg/mL. Further, in data set [1] (pH7.4), the “Solubility pH7.4” value was found to be 0.82 mg/mL. Further, the “risk of inhibiting CYP1A2 activity” value at CYP1A2 is “no risk of inhibiting”. The “risk of inhibiting CYP2C9 activity” value on CYP2C9 was “no risk of inhibiting”.
